Converted amounts (≈) assume the structure as drawn. Like-named read-outs stand apart in the source and are kept apart here. *1 amine or outer side, *2 acyl side, *3 side chain or, on linkers, in order; H or OH if unused. Where a SMILES comes first, the peptide text is derived from it. Bridges are numbered along the chain shown (N, C = ends). [ ]: non-standard residue; d: D form. The star is where a group is joined. Dodecyloxycarbonyl = CCCCCCCCCCCCOC(=O)*; CH2C≡CC≡CCH2 = C(C#CC[*:2])#CC[*:1]; NMePra = C#CC[C@H](NC)C(=O)O; X1 = CCCCCCCCCCCCCCCCOC(=O)*; NMeS = CN[C@@H](CO)C(=O)O; Dab = NCC[C@H](N)C(=O)O; Propargyl = C#CC*
Legend:
E. coli MG1655 [1] = format: cell-based; conditions: MG1655, 24 h
Method: (§1) Minimum Inhibitory Concentration Assay
(§2) MICs were performed in accordance with the broth microdilution protocol from the Clinical and Standards Laboratory Institute.3 Alkynomycins were dissolved at 10 mg/mL in DMSO and two-fold serial dilutions were made across a 96-well plate containing Muller-Hinton (MH) broth. One plate was used for each indicator organism, and each well reached a final inoculum of 5×10^5 colony forming units per mL. Using OD600 readings normalized to a negative control, MICs were recorded as the lowest concentration at which growth was inhibited after a 24 hr incubation at 37 C. Controls were included on each plate to ensure peptide and media sterility. MICs are reported in Table 2 and Tables S4, S5 as an average of at least three independent trials.
(§3) Indicator organisms were stored at -80 C as glycerol stocks. Each organism was streaked onto tryptic soy agar and grown for 24 hr at 37 C. Single colonies were picked and used to inoculate MH broth. Bacteria culture was diluted to reach an OD600 of 0.015 prior to being used for MIC assays. […]

S. epidermidis RP26a [2] = format: cell-based; conditions: 24 h
Method: as §1, §2, §3

[3] = tested on: E. coli BAS901 (permeabilized); format: cell-based; conditions: CLSI broth microdilution, Muller-Hinton broth, 5×10^5 CFU/mL, 24 hr at 37 C, OD600, performed in triplicate
Method: as §1, §2, §3

[4] = tested on: E. coli BAS901 (permeabilized); conditions: previously reported value provided for reference; cited from earlier work
S. epidermidis RP26a [5] = tested on: S. epidermidis RP26a; parameters: method as in 2 sources, ref 38 = [38]; PMID 21095572; doi:10.1016/j.chembiol.2010.09.009; Smith P. A.; Roberts T. C.; Romesberg F. E. Broad-spectrum antibiotic activity of the arylomycin natural products is masked by natural target mutations . Chem. Biol. 2010 , 17 ( 11 ), 1223 – 1231 . ||| ref 38 (a number printed in a supplementary file, which may have a reference list of its own: not looked up in the article's list); conditions: previously reported value provided for reference; cited from earlier work
MRSA USA 300 [6] = conditions: previously reported value provided for reference; cited from earlier work
Text: Table 2 Minimum Inhibitory Concentration of Alkynomycins against Gram-Positive and Gram-Negative Bacteria ^a | column: MRSA

E. coli MG1655 [7] = tested on: E. coli MG1655; parameters: method as in 2 sources, ref 38 = [38]; PMID 21095572; doi:10.1016/j.chembiol.2010.09.009; Smith P. A.; Roberts T. C.; Romesberg F. E. Broad-spectrum antibiotic activity of the arylomycin natural products is masked by natural target mutations . Chem. Biol. 2010 , 17 ( 11 ), 1223 – 1231 . ||| ref 38 (a number printed in a supplementary file, which may have a reference list of its own: not looked up in the article's list); conditions: previously reported value provided for reference; cited from earlier work
MRSA USA 300 [8] = format: cell-based; conditions: USA 300, 24 h
Method: as §1, §2, §3

Compound | MIC E. coli (E. coli MG1655 [1]) | MIC S. epidermidis (S. epidermidis RP26a [2]) | MIC E. coli Δ [3] | MIC E. coli Δ [4] | MIC S. epidermidis (S. epidermidis RP26a [5]) | MIC MRSA (MRSA USA 300 [6]) | MIC E. coli (E. coli MG1655 [7]) | MIC MRSA (MRSA USA 300 [8])
CCCCCCCCCCCCOC(=O)N[C@@H](CCN)C(=O)N(C)[C@H]1COCC#CC#CC[C@H](C(N)=O)NC(=O)[C@H](C)NC1=O [Compound S5] | > 64 µg/mL | > 64 µg/mL | > 64 µg/mL | – | – | – | – | –
CCCCCCCCCCCCOC(=O)N[C@@H](CCN)C(=O)N(C)[C@H]1COCC#CC#CCOC[C@@H](C(N)=O)NC(=O)[C@H](C)NC1=O [Compound S7] (Dodecyloxycarbonyl-[Dab][NMeS]AS-NH2; linker 2-4 via CH2C≡CC≡CCH2) | > 64 µg/mL | > 64 µg/mL | > 64 µg/mL | – | – | – | – | –
Arylomycin A-C16 | – | – | – | 8 µg/mL | 0.5 µg/mL | 32 µg/mL | > 64 µg/mL | –
CCCCCCCCCCCCCCCCOC(=O)N[C@@H](CCN)C(=O)N(C)[C@H]1CC#CC#CC[C@@H](C(N)=O)NC(=O)[C@H](C)NC1=O [Compound 11] | > 64 µg/mL | 4 µg/mL (≈ 6.07 µM) | 4 µg/mL (≈ 6.07 µM) | – | – | – | – | 8 µg/mL (≈ 12.1 µM)
CCCCCCCCCCCCOC(=O)N[C@@H](CCN)C(=O)N(C)[C@H]1CC#CC#CC[C@@H](C(N)=O)NC(=O)[C@H](C)NC1=O [Compound 10] | – | 4 µg/mL (≈ 6.64 µM) | 4 µg/mL (≈ 6.64 µM) | – | – | – | – | 16 µg/mL (≈ 26.5 µM)
CCCCCCCCCCCCOC(=O)N[C@@H](CCN)C(=O)N(C)[C@H]1CC#CC#CC[C@H](C(N)=O)NC(=O)[C@H](C)NC1=O [Compound S1] | > 64 µg/mL | > 64 µg/mL | > 64 µg/mL | – | – | – | – | –
CCCCCCCCCCCCCCCCOC(=O)N[C@@H](CCN)C(=O)N(C)[C@H]1CC#CC#CC[C@H](C(N)=O)NC(=O)[C@H](C)NC1=O [Compound S2] | > 64 µg/mL | > 64 µg/mL | > 64 µg/mL | – | – | – | – | –
CCCCCCCCCCCCOC(=O)N[C@@H](CCN)C(=O)N(C)[C@H]1COCC#CC#CC[C@@H](C(N)=O)NC(=O)[C@H](C)NC1=O [Compound S3] | > 64 µg/mL | > 64 µg/mL | > 64 µg/mL | – | – | – | – | –
CCCCCCCCCCCCOC(=O)N[C@@H](CCN)C(=O)N[C@H]1CC#CC#CC[C@@H](C(N)=O)NC(=O)[C@H](C)NC1=O [Compound S9] | > 64 µg/mL | > 64 µg/mL | > 64 µg/mL | – | – | – | – | –
CCCCCCCCCCCCCCCCOC(=O)N[C@@H](CCN)C(=O)N(C)[C@H]1COCC#CC#CC[C@H](C(N)=O)NC(=O)[C@H](C)NC1=O [Compound S6] | > 64 µg/mL | 64 µg/mL (≈ 92.9 µM) | 64 µg/mL (≈ 92.9 µM) | – | – | – | – | –
CCCCCCCCCCCCOC(=O)N[C@@H](CCN)C(=O)N(C)[C@@H]1CC#CC#CC[C@H](C(N)=O)NC(=O)[C@H](C)NC1=O [Compound 12] | > 64 µg/mL | 16 µg/mL (≈ 26.5 µM) | 16 µg/mL (≈ 26.5 µM) | – | – | – | – | –
CCCCCCCCCCCCCCCCOC(=O)N[C@@H](CCN)C(=O)N(C)[C@H]1COCC#CC#CCOC[C@@H](C(N)=O)NC(=O)[C@H](C)NC1=O [Compound S8] (X1-[Dab][NMeS]AS-NH2; linker 2-4 via CH2C≡CC≡CCH2) | > 64 µg/mL | 64 µg/mL (≈ 89 µM) | 64 µg/mL (≈ 89 µM) | – | – | – | – | –
CCCCCCCCCCCCCCCCOC(=O)N[C@@H](CCN)C(=O)N(C)[C@@H]1CC#CC#CC[C@H](C(N)=O)NC(=O)[C@H](C)NC1=O [Compound 13] | > 64 µg/mL | 16 µg/mL (≈ 24.3 µM) | 32 µg/mL (≈ 48.6 µM) | – | – | – | – | –
C#CCOC[C@H](NC(=O)[C@H](C)NC(=O)[C@H](CC#C)N(C)C(=O)[C@H](CCN)NC(=O)OCCCCCCCCCCCC)C(N)=O [Compound S10] (Dodecyloxycarbonyl-[Dab][NMePra]AS(Propargyl)-NH2) | > 64 µg/mL | > 64 µg/mL | – | – | – | – | – | –
CCCCCCCCCCCCOC(=O)N[C@@H](CCN)C(=O)N(C)[C@H]1CC#CC#CCOC[C@@H](C(N)=O)NC(=O)[C@H](C)NC1=O [Compound 14] | > 64 µg/mL | 16 µg/mL (≈ 25.3 µM) | 16 µg/mL (≈ 25.3 µM) | – | – | – | – | 16 µg/mL (≈ 25.3 µM)
CCCCCCCCCCCCCCCCOC(=O)N[C@@H](CCN)C(=O)N(C)[C@H]1COCC#CC#CC[C@@H](C(N)=O)NC(=O)[C@H](C)NC1=O [Compound S4] | > 64 µg/mL | 64 µg/mL (≈ 92.9 µM) | 64 µg/mL (≈ 92.9 µM) | – | – | – | – | –
CCCCCCCCCCCCCCCCOC(=O)N[C@@H](CCN)C(=O)N(C)[C@H]1CC#CC#CCOC[C@@H](C(N)=O)NC(=O)[C@H](C)NC1=O [Compound 15] | > 64 µg/mL | 32 µg/mL (≈ 46.5 µM) | 16 µg/mL (≈ 23.2 µM) | – | – | – | – | 16 µg/mL (≈ 23.2 µM)

— publication PMC10141592, “Stretching Peptides to Generate Small Molecule β-Strand Mimics” (ACS Central Science, 2023)
